These molecules were tested on MLKL phosphorylation (pMLKL) in HT29-L23 cells (assay: MLKL Phosphorylation High-Content Assay). Conditions: Homo sapiens, 6 h, necroptosis induced with human TNFα, SMAC mimetic and Z-VAD, read-out: LE pMLKL HC IC50.
Assay type: cell-based
Method: Following 6 h incubation at 37° C. […] MLKL phosphorylation was detected using anti-MLKL (phospho […]) antibody (Abcam #ab187091) (1:1000 dilution in Blocking Buffer [PBS supplemented with 0.1% BSA]) with ON incubation at 4° C. […] Following another three cycles of washes in PBS, the microplates were sealed, and cellular images were acquired in the Cellomics ArrayScan VTI high-content imager equipped with an X1 camera. […] The image sets were analyzed using the Compartmental Analysis Bioapplication software (Cellomics). The level of MLKL phosphorylation was quantified as […].

Q: For CC(O)(c1ccccc1)C(F)(F)CCOc1cccc(-c2ccn3nc(N)nc3c2)c1F (single isomer, unassigned) [Example 68, 5-(3-(2-amino-[1,2,4]triazolo[1,5-a]pyridin-7-yl)-2-fluorophenoxy)-3,3-difluoro-2-phenylpentan-2-ol], which IC50 is on record?
A: The IC50 was 0.1 nM.

Q: Nc1nc2cc(-c3cccc(OCCC(F)(F)C(O)c4ccc(F)cc4)c3F)ccn2n1 (single isomer, unassigned) [Example 71, 4-(3-(2-amino-[1,2,4]triazolo[1,5-a]pyridin-7-yl)-2-fluorophenoxy)-2,2-difluoro-1-(4-fluorophenyl)butan-1-ol] was tested. Which IC50 did it give?
A: Its IC50 is 0.6 nM.

Same assay, conditions: necroptosis induced with human TNFα, SMAC mimetic and Z-VAD, 6 h, read-out: LE pMLKL HC IC50

Q: For CC(O)(c1ccccc1)C(F)(F)CCOc1c(F)ccc(-c2ccn3nc(N)nc3c2F)c1F (single isomer, unassigned) [Example 37, 5-(3-(2-amino-8-fluoro-[1,2,4]triazolo[1,5-a]pyridin-7-yl)-2,6-difluorophenoxy)-3,3-difluoro-2-phenylpentan-2-ol], which IC50 is on record?
A: The IC50 was 110 nM.

Q: Which IC50 does the source give for CC(O)(c1ccccc1)C(F)(F)CCOc1c(F)ccc(-c2ccn3nc(N)nc3c2)c1F (single isomer, unassigned) [Example 39, 5-(3-(2-amino-[1,2,4]triazolo[1,5-a]pyridin-7-yl)-2,6-difluorophenoxy)-3,3-difluoro-2-phenylpentan-2-ol] here?
A: The IC50 was 130 nM.

Q: CC(O)(c1ccccc1)C(F)(F)CCOc1c(Cl)ccc(-c2ccn3nc(N)nc3c2)c1F (single isomer, unassigned) [Example 41, 5-(3-(2-amino-[1,2,4]triazolo[1,5-a]pyridin-7-yl)-6-chloro-2-fluorophenoxy)-3,3-difluoro-2-phenylpentan-2-ol] was tested. Which IC50 did it give?
A: Its IC50 is 0.4 nM.

Q: CC(O)(c1ccccc1)C(F)(F)CCOc1c(Cl)ccc(-c2ccn3nc(N)nc3c2)c1F (single isomer, unassigned) [Example 42, 5-(3-(2-amino-[1,2,4]triazolo[1,5-a]pyridin-7-yl)-6-chloro-2-fluorophenoxy)-3,3-difluoro-2-phenylpentan-2-ol] was tested. Which IC50 did it give?
A: Its IC50 is 17 nM.

Q: How did the IC50 turn out when CC(O)(c1ccc(Cl)cc1)C(F)(F)CCOc1c(Cl)ccc(-c2ccn3nc(N)nc3c2)c1F (single isomer, unassigned) [Example 43, 5-(3-(2-amino-[1,2,4]triazolo[1,5-a]pyridin-7-yl)-6-chloro-2-fluorophenoxy)-2-(4-chlorophenyl)-3,3-difluoropentan-2-ol] was run?
A: Its IC50 is 330 nM.

Q: How did the IC50 turn out when CC(O)(c1ccc(Cl)cc1)C(F)(F)CCOc1c(Cl)ccc(-c2ccn3nc(N)nc3c2)c1F (single isomer, unassigned) [Example 44, 5-(3-(2-amino-[1,2,4]triazolo[1,5-a]pyridin-7-yl)-6-chloro-2-fluorophenoxy)-2-(4-chlorophenyl)-3,3-difluoropentan-2-ol] was run?
A: Its IC50 is 0.6 nM.

Q: How did the IC50 turn out when CC(O)(c1ccc(Cl)cc1)C(F)(F)CCOc1c(F)ccc(-c2ccn3nc(N)nc3c2)c1F (single isomer, unassigned) [Example 45, 5-(3-(2-amino-[1,2,4]triazolo[1,5-a]pyridin-7-yl)-2,6-difluorophenoxy)-2-(4-chlorophenyl)-3,3-difluoropentan-2-ol] was run?
A: The IC50 was 80 nM.

Q: Which IC50 does the source give for CC(O)(c1ccc(Cl)cc1)C(F)(F)CCOc1c(F)ccc(-c2ccn3nc(N)nc3c2)c1F (single isomer, unassigned) [Example 46, 5-(3-(2-amino-[1,2,4]triazolo[1,5-a]pyridin-7-yl)-2,6-difluorophenoxy)-2-(4-chlorophenyl)-3,3-difluoropentan-2-ol] here?
A: The IC50 was 0.4 nM.

Q: For CC(O)(c1ccc(Cl)cc1)C(F)(F)CCOc1cccc(-c2ccn3nc(N)nc3c2)c1F (single isomer, unassigned) [Example 47, 5-(3-(2-amino-[1,2,4]triazolo[1,5-a]pyridin-7-yl)-2-fluorophenoxy)-2-(4-chlorophenyl)-3,3-difluoropentan-2-ol], which IC50 is on record?
A: Its IC50 is 23 nM.

Q: Which IC50 does the source give for CC(O)(c1ccc(Cl)cc1)C(F)(F)CCOc1cccc(-c2ccn3nc(N)nc3c2)c1F (single isomer, unassigned) [Example 48, 5-(3-(2-amino-[1,2,4]triazolo[1,5-a]pyridin-7-yl)-2-fluorophenoxy)-2-(4-chlorophenyl)-3,3-difluoropentan-2-ol] here?
A: Its IC50 is 0.1 nM.

Q: How did the IC50 turn out when CC(O)(c1ccc(F)cc1)C(F)(F)CCOc1c(Cl)ccc(-c2ccn3nc(N)nc3c2)c1F (single isomer, unassigned) [Example 51, 5-(3-(2-amino-[1,2,4]triazolo[1,5-a]pyridin-7-yl)-6-chloro-2-fluorophenoxy)-3,3-difluoro-2-(4-fluorophenyl)pentan-2-ol] was run?
A: The IC50 was 150 nM.

Q: How did the IC50 turn out when Nc1nc2cc(-c3ccc(F)c(OCCC(F)(F)C(O)c4ccc(F)cc4)c3)ccn2n1 (single isomer, unassigned) [Example 53, 4-(5-(2-amino-[1,2,4]triazolo[1,5-a]pyridin-7-yl)-2-fluorophenoxy)-2,2-difluoro-1-(4-fluorophenyl)butan-1-ol] was run?
A: The IC50 was 1.5 nM.

Q: How did the IC50 turn out when Nc1nc2cc(-c3ccc(F)c(OCCC(F)(F)C(O)c4ccc(F)cc4)c3)ccn2n1 (single isomer, unassigned) [Example 54, 4-(5-(2-amino-[1,2,4]triazolo[1,5-a]pyridin-7-yl)-2-fluorophenoxy)-2,2-difluoro-1-(4-fluorophenyl)butan-1-ol] was run?
A: The IC50 was 32 nM.

Q: Nc1nc2cc(-c3ccc(F)c(OCCC(F)(F)C(O)c4ccc(F)cc4)c3F)ccn2n1 (single isomer, unassigned) [Example 55, 4-(3-(2-amino-[1,2,4]triazolo[1,5-a]pyridin-7-yl)-2,6-difluorophenoxy)-2,2-difluoro-1-(4-fluorophenyl)butan-1-ol] was tested. Which IC50 did it give?
A: The IC50 was 0.3 nM.

Q: How did the IC50 turn out when Nc1nc2cc(-c3ccc(F)c(OCCC(F)(F)C(O)c4ccc(F)cc4)c3F)ccn2n1 (single isomer, unassigned) [Example 56, 4-(3-(2-amino-[1,2,4]triazolo[1,5-a]pyridin-7-yl)-2,6-difluorophenoxy)-2,2-difluoro-1-(4-fluorophenyl)butan-1-ol] was run?
A: Its IC50 is 4 nM.

Q: CC(O)(c1ccc(F)cc1)C(F)(F)CCOc1cc(-c2ccn3nc(N)nc3c2)ccc1F (single isomer, unassigned) [Example 57, 5-(5-(2-amino-[1,2,4]triazolo[1,5-a]pyridin-7-yl)-2-fluorophenoxy)-3,3-difluoro-2-(4-fluorophenyl)pentan-2-ol] was tested. Which IC50 did it give?
A: The IC50 was 130 nM.

Q: For CC(O)(c1ccc(F)cc1)C(F)(F)CCOc1cc(-c2ccn3nc(N)nc3c2)ccc1F (single isomer, unassigned) [Example 58, 5-(5-(2-amino-[1,2,4]triazolo[1,5-a]pyridin-7-yl)-2-fluorophenoxy)-3,3-difluoro-2-(4-fluorophenyl)pentan-2-ol], which IC50 is on record?
A: The IC50 was 5 nM.

Q: With Nc1nc2cc(-c3ccc(Cl)c(OCCC(F)(F)C(O)c4ccc(F)cc4)c3F)ccn2n1 (single isomer, unassigned) [Example 59, 4-(3-(2-amino-[1,2,4]triazolo[1,5-a]pyridin-7-yl)-6-chloro-2-fluorophenoxy)-2,2-difluoro-1-(4-fluorophenyl)butan-1-ol] as the molecule, how does the IC50 read?
A: The IC50 was 2 nM.

Q: Nc1nc2cc(-c3ccc(Cl)c(OCCC(F)(F)C(O)c4ccc(F)cc4)c3F)ccn2n1 (single isomer, unassigned) [Example 60, 4-(3-(2-amino-[1,2,4]triazolo[1,5-a]pyridin-7-yl)-6-chloro-2-fluorophenoxy)-2,2-difluoro-1-(4-fluorophenyl)butan-1-ol] was tested. Which IC50 did it give?
A: Its IC50 is 5 nM.

Q: Which IC50 does the source give for Nc1nc2cc(-c3cccc(OCCC(F)(F)C(N)c4ccc(F)cc4)c3F)ccn2n1 (single isomer, unassigned) [Example 61, 7-(3-(4-amino-3,3-difluoro-4-(4-fluorophenyl)butoxy)-2-fluorophenyl)-[1,2,4]triazolo[1,5-a]pyridin-2-amine] here?
A: The IC50 was 0.6 nM.

Q: How did the IC50 turn out when Nc1nc2cc(-c3cccc(OCCC(F)(F)C(N)c4ccc(F)cc4)c3F)ccn2n1 (single isomer, unassigned) [Example 62, 7-(3-(4-amino-3,3-difluoro-4-(4-fluorophenyl)butoxy)-2-fluorophenyl)-[1,2,4]triazolo[1,5-a]pyridin-2-amine] was run?
A: Its IC50 is 6 nM.

Q: With Cc1ccc(-c2ccn3nc(N)nc3c2)c(F)c1OCCC(F)(F)C(C)(O)c1ccc(F)cc1 (single isomer, unassigned) [Example 63, 5-(3-(2-amino-[1,2,4]triazolo[1,5-a]pyridin-7-yl)-2-fluoro-6-methylphenoxy)-3,3-difluoro-2-(4-fluorophenyl)pentan-2-ol] as the molecule, how does the IC50 read?
A: Its IC50 is 8 nM.

Q: How did the IC50 turn out when Cc1ccc(-c2ccn3nc(N)nc3c2)c(F)c1OCCC(F)(F)C(C)(O)c1ccc(F)cc1 (single isomer, unassigned) [Example 64, 5-(3-(2-amino-[1,2,4]triazolo[1,5-a]pyridin-7-yl)-2-fluoro-6-methylphenoxy)-3,3-difluoro-2-(4-fluorophenyl)pentan-2-ol] was run?
A: Its IC50 is 0.1 nM.

Q: Which IC50 does the source give for CC(O)(c1ccccc1)C(F)(F)CCOc1cccc(-c2ccn3nc(N)nc3c2)c1F (single isomer, unassigned) [Example 67, 5-(3-(2-amino-[1,2,4]triazolo[1,5-a]pyridin-7-yl)-2-fluorophenoxy)-3,3-difluoro-2-phenylpentan-2-ol] here?
A: The IC50 was 4 nM.

Q: For Nc1nc2cc(-c3cccc(OCCC(F)(F)C(O)c4ccc(F)cc4)c3F)ccn2n1 (single isomer, unassigned) [Example 72, 4-(3-(2-amino-[1,2,4]triazolo[1,5-a]pyridin-7-yl)-2-fluorophenoxy)-2,2-difluoro-1-(4-fluorophenyl)butan-1-ol], which IC50 is on record?
A: Its IC50 is 1 nM.

Q: With CC(O)(c1ccc(F)cc1)C(F)(F)CCOc1c(F)ccc(-c2ccc3nc(N)nn3c2)c1F (single isomer, unassigned) [Example 75, 5-(3-(2-amino-[1,2,4]triazolo[1,5-a]pyridin-6-yl)-2,6-difluorophenoxy)-3,3-difluoro-2-(4-fluorophenyl)pentan-2-ol] as the molecule, how does the IC50 read?
A: The IC50 was 200 nM.
